# From patent US6090987A, “Metal-ligand complex catalyzed processes” (Union Carbide Chemicals & Plastics Technology Corporation, priority 1998, dated 2000)
# Experiments:
# [1] = Residual propylene hydroformylation activity after heat treatment, Ligand F catalyst (Table 1)
# Protocol: A catalyst solution (100 milliliters) was generated in a six ounce Fisher Porter Bottle by dissolving 0.063 grams of rhodium dicarbonyl 2,4-pentanedionate, 0.8 grams of Ligand F, 20 grams of n-butyraldehyde, and 78.7 grams of tetraethylene glycol dimethyl ether, subsequently alternately evacuating and flushing with nitrogen; and finally adding 60 psi of CO:H2, and placing the bottles in a 100° C. oil bath for 1 hour.
# (§1) After closing the reactor, the system was again purged with nitrogen and place in an oil bath heated to 100° C. The hydroformylation reaction in each experiment was conducted at a total gas pressure of 160 psig. The target partial pressure of hydrogen, carbon monoxide, and propylene being about 45 psia, 45 psia, and 5 psia respectively, with the remainder being nitrogen. The flows of the feed gases (carbon monoxide, hydrogen, propylene, and nitrogen) were controlled individually with mass flow meters. The feed gases were dispersed into the precursor solution via stainless steel 7-micron filters used as spargers. The unreacted portion of the feed gases stripped out the product aldehydes. Each experiment was operated for 24 hours under the above conditions. The activity is defined as the observed reaction rate divided by the predicted reaction rate. The reaction rates are expressed in terms of gram moles per liter per hour.
# The same procedure as in Example 2 was followed with the exception that a slow stream of 1,2-propadiene was purged through the initially generated catalyst solution for 5 minutes. Excess was then removed by alternately evacuating and flushing with nitrogen. The resulting solution was heated at 125° C. as in Example 2, and 20 milliliters of the resulting solution was transferred to a glass reactor as in Example 2 and the activity determined.
# (§2) The same procedure as in Example 3 was followed except 2 milliliters of 1,3-butadiene was added to the generated catalyst and stirred for 5 minutes. Excess 1,3-butadiene was then removed by alternate evacuation and flushing with nitrogen. The resulting solution was heated at 125° C. as in Example 2, and 20 milliliters of the resulting solution was transferred to a glass reactor as in Example 2 and the activity determined.
# The same procedure as in Example 4 was followed with the exception that 50 milliliters of a catalyst solution generated as in Example 2 was treated with 0.5 milliliters of 2-methyl-1,3-butadiene (isoprene) in place of 1,3-butadiene.
# A catalyst solution (20 milliliters) was generated in a Fisher Porter Bottle as in Example 2 under 60 psi CO:H2 for 1 hour, then cooled to room temperature and treated with 0.5 milliliters of 1,3-butadiene. The solution was removed from the Fisher Bottle by hypodermic syringe and transferred to a 100 milliliter stirred stainless vessel and maintained at 140° C. under 15 psi nitrogen for 14 hours. The resulting solution was then transferred to the glass reactors as in Example 2, and the residual catalyst activity measured. […]
# The same procedure as in Example 8 was followed except allene was employed in place of 1,3-butadiene, and the resulting solution heated at 140° C. for 48 hours without removing excess allene.
# A 20 milliliter sample of freshly generated catalyst solution (prepared as in Example 2) was charged to the glass reactors and the activity measured.
# The same procedure as in Example 8 was followed except 0.4 grams of 1,3-cyclohexadiene was employed in place of 1,3-butadiene.
# [2] = Residual propylene hydroformylation activity after heat treatment, Ligand D catalyst (Table 1); conditions: 125° C./50 hours, excess diene checked
# Protocol: as §1, with “About 20 milliliters of the solution was charged to a glass reactor via a syringe after purging the reactor with nitrogen (see Examples 14-20 below). After” for “After”
# as §2
# The same procedure as in Example 4 was followed except Ligand D (as identified herein) was employed in place of Ligand F. The results are given in Table 1.
# The same procedure as in Example 10 was followed except the fresh catalyst solution contained Ligand D in place of Ligand F. The results are given in Table 1.
# [3] = Decomposition of free Ligand F and deactivated complex formation at 145° C. by HPLC (FIG. 3); format: physicochemical; conditions: for deactivated complex concentration / free Ligand F concentration: 45 psig, treated with 1 ml 1,3-butadiene
# Protocol: A catalyst solution (5 milliliters), 600 parts per million in rhodium and 0.8 weight percent in Ligand F generated as in Example 2 was charged to a 3 ounce Fisher Porter bottle and alternately flushed evacuated with nitrogen, then placed in a 145° C. oil bath under nitrogen (80 psig total pressure) and then monitored by HPLC at 1 and 3 hours for the Ligand F and deactivated complex concentrations. The free Ligand F concentration was 0.75, 0.57 and 0.37 weight percent at 0, 1 and 3 hours, respectively, while the deactivated complex concentration was 0.010, 0.57 and 0.89 weight percent at 0, 1 and 3 hours respectively.
# The same procedure as in Example 21 was followed except the catalyst solution was treated with 1 milliliter of 1,3-butadiene and then heated at 145° C. for 3 hours (45 psig total pressure). The free Ligand F concentration measured by HPLC (high pressure liquid chromatography) was 0.75, 0.66, and 0.62 weight percent at 0, 1 and 3 hours, respectively, while the deactivated complex concentration was 0.010, 0.012, and 0.05 weight percent at 0, 1 and 3 hours respectively.
# [4] = 125° C./24 hours, no excess diene
# [5] = 140° C./14 hours, excess diene present
# [6] = 140° C./48 hours, excess diene present
structure (smiles),measurement,setting,value
"C=CC=C [Butadiene, 1,3-butadiene]",% Activity,[1]; [4],102%
same,Final Rate,[1]; [4],2.23 gram moles per liter per hour
same,% Activity,[1]; [5],25.2%
same,Final Rate,[1]; [5],0.55 gram moles per liter per hour
same,% Activity,[1]; [6],96.3%
same,Final Rate,[1]; [6],2.10 gram moles per liter per hour
same,% Activity,[2],116%
same,Final Rate,[2],1.23 gram moles per liter per hour
same,deactivated complex concentration,[3]; 0 hours,0.010 weight percent
same,free Ligand F concentration,[3]; 0 hours,0.75 weight percent
same,deactivated complex concentration,[3]; 1 hour,0.012 weight percent
same,free Ligand F concentration,[3]; 1 hour,0.66 weight percent
same,deactivated complex concentration,[3]; 3 hours,0.05 weight percent
same,free Ligand F concentration,[3]; 3 hours,0.62 weight percent
same,decomposition of free Ligand F (FIG. 3),[3]; prior complexation of catalyst with butadiene,suppresses decomposition of free Ligand F
